Reference: US8008312B2, “CXCR4 antagonists for the treatment of HIV infection” (Emory University, priority 2005, dated 2011)
Where two headings read alike, the source gives them in different places.

Assays:
NL4-3 = experiment: Phenoscreen viral entry inhibition assay, NL4-3; type: cell-based, HIV
Experimental: (§1) A selected set of compounds were tested for their ability to inhibit the cellular entry of T-tropic HIV. The assay for this inhibition has been carried out on a contractural basis at Monogram Biosciences, Inc. using their well established Phenoscreen™ assay. Briefly, HIV strains of interest are tagged with a luciferase indicator gene to create an appropriate test vector. The test vector is amplified through transfection and the resulting virus is incubated in the presence of target host cells where intracellular florescence activity then becomes a measure of infection. Amplified virus is exposed to target host cells in the presence of a range of test drug concentrations to determine IC50 measurements of entry inhibition. A modification of this test has been further reapplied as a novel drug assay that has been used in partnership with a number of pharmaceutical companies to test the effectiveness of novel entry inhibitors that target specific chemokines. It can used to detect activity against T-tropic, M-tropic, and dual-tropic viruses and Monogram Biosciences has a large bank of over 10,000 different virus strains to ultimately asses the range of applicability of our CXCR4 antagonists. Certain compounds have been tested to establish efficacy in a number of viral strains.

CXCR4 [1] = target: T1, CXCR4 (Homo sapiens, UniProt P61073); experiment: SDF-1 stimulated Erk1/2 phosphorylation; type: cell-based; conditions: SDF-1 stimulation; data not shown
Text: CXCR4/SDF-1 interaction activates PI3K/Akt and Ras/Raf/MEK/Erk pathways in a Gas protein (PTX-sensitive)-dependent manner.

Vrs-2 = experiment: Phenoscreen viral entry inhibition assay, Vrs-2; type: cell-based, HIV; conditions: Human immunodeficiency virus 1, read-out: Viral Entry Inhibition Vrs-2
Experimental: as §1

HXB2 = experiment: Phenoscreen viral entry inhibition assay, HXB2; type: cell-based, HIV
Experimental: as §1

CXCR4 [2] = target: T1, CXCR4; experiment: CXCR4 protein levels after treating cells; type: cell-based
Vrs-3 = experiment: Phenoscreen viral entry inhibition assay, Vrs-3; type: cell-based, HIV
Experimental: as §1

SHIV = experiment: Phenoscreen viral entry inhibition assay, SHIV; type: cell-based
Experimental: as §1

CXCR4 [3] = target: T1, CXCR4; experiment: SDF-1 stimulated phosphorylation of Akt in MDA-MB-231 cells; type: cell-based; conditions: 100 ng/ml SDF-1, 30 minutes; FIG. 2
Experimental: FIG. 2 is an image of a western blot showing phosphorylation of Akt. Incubating MDA-MB-231 cells with 100 ng/ml of SDF-1 for 30 min stimulated phosphorylation of Akt. This activation was blocked with TN14003 or AMD3100 in a dose-dependent manner.
CXCR4/SDF-1 interaction activates PI3K/Akt and Ras/Raf/MEK/Erk pathways in a Gas protein (PTX-sensitive)-dependent manner. Experiments were conducted to determine the effect of blocking CXCR4/SDF-1 interaction by either TN14003 or AMD3100 at different concentrations (0, 0.01, 0.1, 1, 10, 100, 1000 nM) on phosphorylations of Akt and Erk1/2 signaling. Incubating cells with 100 ng/ml of SDF-1 for 30 minutes activated Akt. […] However, the increase in Erk1/2 phosphorylation by SDF-1 was not significant as the increase in Akt phosphorylation.

Dual = experiment: Phenoscreen viral entry inhibition assay, Dual; type: cell-based, HIV; conditions: Human immunodeficiency virus 1, read-out: Viral Entry Inhibition Dual
Experimental: as §1

Vrs-1 = experiment: Phenoscreen viral entry inhibition assay, Vrs-1; type: cell-based, HIV
Experimental: as §1

CXCR4 [4] = target: T1, CXCR4; experiment: Competition assay using biotin-labeled TN14003 on tumor cells; type: binding; conditions: FIG. 5, cells pre-incubated with various concentrations; read-out: IC50 (biotin-labeled TN14003 detection of CXCR4 after pre-incubation)
Experimental: Biotin-labeled TN14003 was used to detect CXCR4 protein from the cells pre-incubated with various concentrations of WZZL811S.
Using biotin-labeled TN14003 along with streptavidin-conjugated rhodamine allowed a determination of the binding efficiency of these chemicals to the SDF-1 binding site of CXCR4 on tumor cells and compared it to AMD3100-SDF-1 interactions (FIG. 4). […] Cells were pre-incubated with different concentrations of AMD3100. […] Therefore, one of these compounds, WZZL811S, was selected to study its therapeutic potential based on potency and low toxicity to cells (FIG. 6).

MDA-MB-231 cells = experiment: Cell viability of MDA-MB-231 cells; type: cell-based; conditions: even at 100 μM (the highest concentration tested)
CXCR4 [5] = target: T1, CXCR4; experiment: Competition screening using the native CXCR4 ligand SDF-1; type: binding; conditions: competition with SDF-1
Half-life in mice = conditions: mouse, in vivo, read-out: t1/2 (min) in mice
MT-4 cells = conditions: cited from earlier work
[6] = Human immunodeficiency virus 1, NL43, read-out: Viral Entry Inhibition NL4-3
[7] = Human immunodeficiency virus 1, HXB2, read-out: Viral Entry Inhibition HXB2
[8] = Human immunodeficiency virus 1, read-out: Viral Entry Inhibition Vrs-3
[9] = Human immunodeficiency virus 1, read-out: Viral Entry Inhibition Vrs-1

T1 sequence (P61073 whole entry): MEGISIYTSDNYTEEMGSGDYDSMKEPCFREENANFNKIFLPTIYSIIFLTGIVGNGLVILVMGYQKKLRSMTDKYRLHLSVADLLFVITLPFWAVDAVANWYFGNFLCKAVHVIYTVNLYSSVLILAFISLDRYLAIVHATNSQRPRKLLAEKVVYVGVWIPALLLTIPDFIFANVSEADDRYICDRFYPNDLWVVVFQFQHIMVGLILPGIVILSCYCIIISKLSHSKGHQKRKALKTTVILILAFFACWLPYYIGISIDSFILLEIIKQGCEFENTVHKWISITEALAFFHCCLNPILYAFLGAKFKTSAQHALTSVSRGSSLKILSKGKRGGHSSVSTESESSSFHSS

Compound: C1=CC(CN2CCCNCCNCCCNCC2)CC=C1CN1CCCNCCNCCCNCC1 (stereo not drawn) [AMD3100, reference compound]
- IC50 (NL4-3; [6]): 0.008 µM
- concentration attenuating Erk1/2 phosphorylation (CXCR4 [1]): 100 nM
- IC50 (Vrs-2): 0.015 µM
- IC50 (HXB2; [7]): 0.013 µM
- effect on CXCR4 protein levels (CXCR4 [2]): did not affect CXCR4 protein levels
- IC50 (Vrs-3; [8]): 0.043 µM
- IC50 (SHIV): 0.013 µM
- concentration blocking Akt activation (CXCR4 [3]): a few nano molar
- IC50 (Dual): 0.03 µM
- IC50 (Vrs-1; [9]): 0.013 µM

Compound: c1cnc(NCc2ccc(CNc3ncccn3)cc2)nc1 [WZ-40-MS]
- IC50 (NL4-3; [6]): > 15 µM
- IC50 (Vrs-2): ~10 µM
- IC50 (HXB2; [7]): > 15 µM
- IC50 (Vrs-3; [8]): > 15 µM
- IC50 (SHIV): ~12 µM
- IC50 (Dual): > 15 µM
- IC50 (Vrs-1; [9]): > 15 µM

Compound: OCc1ccc(CNc2ncccn2)cc1 [WZ-41]
- IC50 (NL4-3; [6]): > 15 µM
- IC50 (Vrs-2): ~13 µM
- IC50 (HXB2; [7]): > 15 µM
- IC50 (Vrs-3; [8]): > 15 µM
- IC50 (SHIV): ~15 µM
- IC50 (Dual): > 15 µM
- IC50 (Vrs-1; [9]): > 15 µM

Compound: c1ccc(NCc2cccc(CNc3ccccn3)c2)nc1 [WZ-48-S]
- IC50 (NL4-3; [6]): > 15 µM
- IC50 (Vrs-2): ~11 µM
- IC50 (HXB2; [7]): > 15 µM
- IC50 (Vrs-3; [8]): > 15 µM
- IC50 (SHIV): ~11 µM
- IC50 (Dual): > 15 µM
- IC50 (Vrs-1; [9]): > 15 µM

Compound: Fc1ccccc1NCc1ccc(CNc2ccccc2F)cc1 [WZ-51]
- IC50 (NL4-3; [6]): ~12 µM
- IC50 (Vrs-2): ~10 µM
- IC50 (HXB2; [7]): > 15 µM
- IC50 (Vrs-3; [8]): ~10 µM
- IC50 (SHIV): 1.42 µM
- IC50 (Dual): ~12 µM
- IC50 (Vrs-1; [9]): ~10 µM

Compound: c1ccc(NCc2ccc(CNc3ncccn3)cc2)cc1 [WZ-67]
- IC50 (NL4-3; [6]): ~11 µM
- IC50 (Vrs-2): ~11 µM
- IC50 (HXB2; [7]): > 15 µM
- IC50 (Vrs-3; [8]): ~12 µM
- IC50 (SHIV): ~10 µM
- IC50 (Dual): > 15 µM
- IC50 (Vrs-1; [9]): > 15 µM

Compound: COc1ccnc(NCc2ccc(CNc3nccc(OC)n3)cc2)n1 [WZ-72-S]
- IC50 (NL4-3; [6]): ~15 µM
- IC50 (Vrs-2): ~12 µM
- IC50 (HXB2; [7]): > 15 µM
- IC50 (Vrs-3; [8]): > 15 µM
- IC50 (SHIV): 4.44 µM
- IC50 (Dual): > 15 µM
- IC50 (Vrs-1; [9]): > 15 µM

Compound: COc1cccc(NCc2ccc(CNc3cccc(OC)c3)cc2)c1 [WZ-77]
- IC50 (NL4-3; [6]): ~14 µM
- IC50 (Vrs-2): ~11 µM
- IC50 (HXB2; [7]): > 15 µM
- IC50 (Vrs-3; [8]): > 15 µM
- IC50 (SHIV): 8.96 µM
- IC50 (Dual): > 15 µM
- IC50 (Vrs-1; [9]): > 15 µM

Compound: c1ccc(NCc2cccc(CNc3ccccc3)c2)cc1 [WZ-814-S]
- IC50 (NL4-3; [6]): ~11 µM
- IC50 (Vrs-2): ~11 µM
- IC50 (HXB2; [7]): ~15 µM
- IC50 (Vrs-3; [8]): ~11 µM
- IC50 (SHIV): > 15 µM
- IC50 (Dual): > 15 µM
- IC50 (Vrs-1; [9]): ~11 µM

Compound: c1ccc(CNCc2ccc(CNCc3ccccc3)cc2)cc1 [WZ-8224]
- IC50 (NL4-3; [6]): 6.37 µM
- IC50 (Vrs-2): 4.31 µM
- IC50 (HXB2; [7]): 8.08 µM
- IC50 (Vrs-3; [8]): 5.72 µM
- IC50 (SHIV): 1.7 µM
- IC50 (Dual): 6.25 µM
- IC50 (Vrs-1; [9]): 4.78 µM

Compound: CC(Nc1ccccc1)c1ccc(C(C)Nc2ccccc2)cc1 (stereo not drawn) [WZ-8225]
- IC50 (NL4-3; [6]): ~10 µM
- IC50 (Vrs-2): ~10 µM
- IC50 (HXB2; [7]): ~11 µM
- IC50 (Vrs-3; [8]): ~10 µM
- IC50 (SHIV): ~10 µM
- IC50 (Dual): > 15 µM
- IC50 (Vrs-1; [9]): ~11 µM

Compound: Cc1cc(CNc2ccccc2)c(C)cc1CNc1ccccc1 [WZ-9103]
- IC50 (NL4-3; [6]): ~11 µM
- IC50 (Vrs-2): ~15 µM
- IC50 (HXB2; [7]): ~13 µM
- IC50 (Vrs-3; [8]): ~15 µM
- IC50 (SHIV): 9.5 µM
- IC50 (Dual): > 15 µM
- IC50 (Vrs-1; [9]): > 15 µM

Compound: c1ccc(NCc2ccc(CNc3ccccc3)cc2)cc1 [WZ-81810]
- IC50 (NL4-3; [6]): > 15 µM
- IC50 (Vrs-2): ~10 µM
- IC50 (HXB2; [7]): > 15 µM
- IC50 (Vrs-3; [8]): > 15 µM
- IC50 (SHIV): ~12 µM
- IC50 (Dual): > 15 µM
- IC50 (Vrs-1; [9]): > 15 µM

Compound: c1ccc(NCc2ccc(CNc3ccccn3)cc2)nc1 [WZZL811S]
- IC50 (NL4-3; [6]): > 15 µM
- IC50 (CXCR4 [4]): < 1 nM
- IC50 (Vrs-2): ~12 µM
- IC50 (HXB2; [7]): > 15 µM
- IC50 (Vrs-3; [8]): > 15 µM
- IC50 (SHIV): > 15 µM
- IC50 (Dual): > 15 µM
- cell viability of MDA-MB-231 cells (MDA-MB-231 cells): did not decrease cell viability
- IC50 (Vrs-1; [9]): > 15 µM

Compound: c1ccc(NCc2ccc(CNc3ccccn3)cc2)nc1 [drawing 204]
- IC50 (CXCR4 [5]): < 10 nM

Compound: c1cnc(NCc2ccc(CNc3ncccn3)cc2)nc1 [drawing 205]
- half-life (Half-life in mice): 45 min
- IC50 (CXCR4 [5]): < 10 nM

Compound: OCc1ccc(CNc2ncccn2)cc1 [drawing 206]
- IC50 (CXCR4 [5]): < 10 nM

Compound: c1ccc(NCc2ccc(CNc3ccccc3)cc2)cc1 [drawing 208]
- half-life (Half-life in mice): 11 min
- IC50 (CXCR4 [5]): < 10 nM

Compound: c1ccc(NCc2cccc(CNc3ccccc3)c2)cc1 [drawing 209]
- half-life (Half-life in mice): < 5 min
- IC50 (CXCR4 [5]): < 10 nM

Compound: c1ccc(CNCc2ccc(CNCc3ccccc3)cc2)cc1 [drawing 210]
- IC50 (CXCR4 [5]): < 100 nM

Compound: CC(Nc1ccccc1)c1ccc(C(C)Nc2ccccc2)cc1 (stereo not drawn) [drawing 211]
- half-life (Half-life in mice): 13.7 min
- IC50 (CXCR4 [5]): < 100 nM

Compound: Cc1cc(CNc2ccccc2)c(C)cc1CNc1ccccc1 [drawing 212]
- IC50 (CXCR4 [5]): > 100 nM

Compound: Fc1ccccc1NCc1ccc(CNc2ccccc2F)cc1 [drawing 213]
- IC50 (CXCR4 [5]): < 10 nM

Compound: c1ccc(NCc2ccc(CNc3ncccn3)cc2)cc1 [drawing 214]
- half-life (Half-life in mice): 14 min

Compound: COc1ccnc(NCc2ccc(CNc3nccc(OC)n3)cc2)n1 [drawing 215]
- IC50 (CXCR4 [5]): 10 nM

Compound: COc1cccc(NCc2ccc(CNc3cccc(OC)c3)cc2)c1 [drawing 216]
- half-life (Half-life in mice): 14.3 min
- IC50 (CXCR4 [5]): 1 nM

Compound: TN14003 [reference compound]
- IC50 (NL4-3; NL4-3 strain, read-out: Viral Entry Inhibition NL4-3): 0.005 µM
- concentration attenuating Erk1/2 phosphorylation (CXCR4 [1]): sub-nano molar concentration
- IC50 (HXB2; HXB2 strain, read-out: Viral Entry Inhibition HXB2): 0.01 µM
- effect on CXCR4 protein levels (CXCR4 [2]): did not affect CXCR4 protein levels
- IC50 (Vrs-3; Vrs-3 strain, read-out: Viral Entry Inhibition Vrs-3): 0.025 µM
- IC50 (SHIV; SHIV): 0.007 µM
- concentration blocking Akt activation (CXCR4 [3]): sub-nano molar concentration
- concentration leading to 50% toxicity (MT-4 cells): 410 µM
- IC50 (Vrs-1; Vrs-1 strain, read-out: Viral Entry Inhibition Vrs-1): 0.01 µM
